We go through 33 compounds from US9969716B2, “Indole derivatives as modulators of methyl modifying enzymes, compositions and uses thereof” (Constellation Pharmaceuticals, Inc., priority 2013, dated 2018).

In assay [1] the target is EZH2 (Homo sapiens, UniProt Q15910). The assay is described as follows: EZH2 assay (rPRC2, 3H SAM methyl transfer to biotinylated oligonucleosomes, FlashPlate). It counts as biochemical. On the procedure: EZH2 Assay: Assays were carried out by mixing rPRC2 together with biotinylated oligonucleosome substrates in the presence of the radio-labeled enzyme co-factor, S-adenosyl-L-methionine (^3H SAM) (Perkin Elmer) and monitoring the enzymatically mediated transfer of tritiated methyl groups from ^3H SAM to histone lysine residues. The amount of resulting tritiated methyl histone product was measured by first capturing the biotinylated oligonucleosomes in streptavidin (SAV) coated FlashPlates (Perkin Elmer), followed by a wash step to remove un-reacted ^3H SAM, and then counting on a TopCount NXT 384 well plate scintillation counter (Perkin Elmer). The final assay conditions for EZH2 were as follows: 50 mM Tris Buffer pH 8.5, 1 mM DTT, 69 μM Brij-35 detergent, 5.0 mM MgCl2, 0.1 mg/mL BSA, 0.2 μM ^3H SAM, 0.2 μM biotinylated oligonucleosomes, 3.6 μM H3K27me3 peptide and 2 nM EZH2.
A 12.5 μL volume of the HMT enzyme, H3K27me3 peptide and oligonucleosome substrate in assay buffer was added to each well of the assay plate using a Multidrop Combi (ThermoFisher). Compounds were pre-incubated with the enzyme for 20 min, followed by initiation of the methyltransferase reaction by addition of 12.5 μL of ^3H SAM in assay buffer (final volume=25 μL). The final concentrations of compounds ranged from a top default concentration of 80 μM down to 0.16 μM in ten 2-fold dilution steps. Reactions were carried out for 60 minutes and quenched with 20 μL per well of 1.96 mM SAH, 50 mM Tris pH 8.5, 200 mM EDTA. Stopped reactions were transferred to SAV coated Flashplates (Perkin Elmer), incubated for 120 min, washed with a plate washer, and then read on the TopCount NXT (1.0 min/well) to measure the amount of methyl histone product formed during the reaction.

Assay [2] has as its system H3K27me3 mark in HeLa cells. The assay is described as follows: H3K27me3 Alpha Hela Assay (AlphaLISA). Conditions: Homo sapiens, 72 hrs, read-out: EZH2_Cell_H3K27me3_Alpha_HeLa (EC50_K27me3). Type of assay: cell-based. The method, then:
Ten different doses of each test compound (in a series of 3-fold dilutions) were plated in duplicate 384-well tissue culture treated plates (Catalog #781080; Greiner Bio One; Monroe, N.C.). Hela cells grown in culture were trypsinized and counted using a Countess® cell counter (Catalog # C10281; Life Technologies, Grand Island, N.Y.). Cell were diluted to 67,000 cells per mL in 10% DMEM (Catalog #10569-010 Life Technologies, Grand Island, N.Y.) and 15 μL (1,000 cells) were plated into each well using the Biotek MicroFlo™ Select Dispenser (BioTek Instruments, Inc. Vermont, USA),) of the 384-well plate. Plates were incubated at 37° C./5% CO2 for 72 hrs. One of the duplicate plates was processed for HeLa assay and the other for viability.
To the plate processed for AlphaLISA was added 5 μL per well Cell-Histone Lysis buffer (1λ) (Catalog # AL009F1 Perkin Elmer; Waltham, Mass.) and the plate was incubated at RT for 30 minutes on a plate shaker with low speed (Model#4625-Q Thermo Scientific; Waltham, Mass.). Then, 10 μL per well Histone Extraction buffer (catalog # AL009F2; Perkin Elmer; Waltham, Mass.) was added and the plate further incubated at RT for 20 min on plate shaker with low speed. To each well was then added 10 μL per well of a 5× mix of anti-K27me3 acceptor beads plus Biotinylated anti-Histone H3 (C-ter) Antibody (diluted to 3 nM final) (Catalog #AL118 Perkin Elmer; Waltham, Mass.). Dilution of the acceptor beads and then anti-Histone H3 was with 1× Histone Detection buffer (Catalog # AL009F3 Perkin Elmer; Waltham, Mass.) which was produced diluted from the 10× stock provided. The plate was sealed with an aluminum plate sealer and incubated at 23° C. for 60 min. We then added 10 μL 5× solution of Streptavidin Donor beads (Catalog #6760002 Perkin Elmer; Waltham, Mass.) (20 μg/mL final in 1× Histone Detection Buffer), sealed the plate with Aluminum plate sealer and incubated at 23° C. for 30 min. The plates were then read using an EnVision-Alpha Reader (model #2104 Perkin Elmer; Waltham, Mass.).
Data from both assays was analyzed using Assay Assistant (Constellation Pharmaceuticals In-house product) and Activity Base (IDBS Ltd, Surrey, UK) template. Data files were imported to Assay Assistant and assay conditions were specified. A unique Analysis ID was created and the data files exported to Activity Base. An analysis template was created on Activity Base to measure dose-dependent inhibition of H3K27me3 mark and cell viability respectively. Readout of DMSO wells were used to normalize the data. Resulting curves were fitted using Activity base software Model 205 (IDBS Ltd, Surrey, UK). The data was checked for quality, validated and integrated in excel format using SARview (IDBS Ltd, Surrey, UK).

Each structure is given as a SMILES string. Like-named read-outs stand apart in the source and are kept apart here. A value given as a limit tells only on which side of the number the result lay.

Chain of EZH2 (Q15910 whole entry): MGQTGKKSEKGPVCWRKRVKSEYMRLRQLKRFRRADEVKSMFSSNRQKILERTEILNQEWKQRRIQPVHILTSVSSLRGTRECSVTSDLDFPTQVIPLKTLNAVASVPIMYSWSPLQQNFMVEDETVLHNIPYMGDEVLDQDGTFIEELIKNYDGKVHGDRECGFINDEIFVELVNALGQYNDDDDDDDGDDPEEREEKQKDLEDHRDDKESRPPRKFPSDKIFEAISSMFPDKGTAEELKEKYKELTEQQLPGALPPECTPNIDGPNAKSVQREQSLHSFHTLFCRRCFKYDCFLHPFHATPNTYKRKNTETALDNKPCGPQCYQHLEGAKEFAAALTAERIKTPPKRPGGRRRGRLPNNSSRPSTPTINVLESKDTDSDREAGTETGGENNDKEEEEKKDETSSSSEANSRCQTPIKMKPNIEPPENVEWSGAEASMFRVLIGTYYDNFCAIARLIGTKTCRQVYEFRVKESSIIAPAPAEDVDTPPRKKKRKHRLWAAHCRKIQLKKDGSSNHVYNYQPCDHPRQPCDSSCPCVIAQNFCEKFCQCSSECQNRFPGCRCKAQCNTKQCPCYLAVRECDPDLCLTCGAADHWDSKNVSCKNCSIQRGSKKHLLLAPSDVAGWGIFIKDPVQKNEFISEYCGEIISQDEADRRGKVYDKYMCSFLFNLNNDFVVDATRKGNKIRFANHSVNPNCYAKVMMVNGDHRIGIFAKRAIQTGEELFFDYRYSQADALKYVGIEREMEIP
Chain of EZH2 (O75530 whole entry partner): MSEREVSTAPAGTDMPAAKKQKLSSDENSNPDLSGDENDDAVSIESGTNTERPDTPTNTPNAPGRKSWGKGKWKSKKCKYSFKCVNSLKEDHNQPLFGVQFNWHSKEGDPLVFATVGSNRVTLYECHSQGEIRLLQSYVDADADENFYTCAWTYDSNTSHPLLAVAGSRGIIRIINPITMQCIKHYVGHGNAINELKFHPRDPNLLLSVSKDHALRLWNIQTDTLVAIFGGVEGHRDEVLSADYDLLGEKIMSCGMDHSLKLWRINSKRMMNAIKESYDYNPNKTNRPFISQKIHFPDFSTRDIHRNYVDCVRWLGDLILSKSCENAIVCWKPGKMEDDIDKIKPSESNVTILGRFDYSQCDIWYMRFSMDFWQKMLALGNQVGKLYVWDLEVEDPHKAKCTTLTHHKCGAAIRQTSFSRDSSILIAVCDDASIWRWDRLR
Chain of EZH2 (Q15022 whole entry partner): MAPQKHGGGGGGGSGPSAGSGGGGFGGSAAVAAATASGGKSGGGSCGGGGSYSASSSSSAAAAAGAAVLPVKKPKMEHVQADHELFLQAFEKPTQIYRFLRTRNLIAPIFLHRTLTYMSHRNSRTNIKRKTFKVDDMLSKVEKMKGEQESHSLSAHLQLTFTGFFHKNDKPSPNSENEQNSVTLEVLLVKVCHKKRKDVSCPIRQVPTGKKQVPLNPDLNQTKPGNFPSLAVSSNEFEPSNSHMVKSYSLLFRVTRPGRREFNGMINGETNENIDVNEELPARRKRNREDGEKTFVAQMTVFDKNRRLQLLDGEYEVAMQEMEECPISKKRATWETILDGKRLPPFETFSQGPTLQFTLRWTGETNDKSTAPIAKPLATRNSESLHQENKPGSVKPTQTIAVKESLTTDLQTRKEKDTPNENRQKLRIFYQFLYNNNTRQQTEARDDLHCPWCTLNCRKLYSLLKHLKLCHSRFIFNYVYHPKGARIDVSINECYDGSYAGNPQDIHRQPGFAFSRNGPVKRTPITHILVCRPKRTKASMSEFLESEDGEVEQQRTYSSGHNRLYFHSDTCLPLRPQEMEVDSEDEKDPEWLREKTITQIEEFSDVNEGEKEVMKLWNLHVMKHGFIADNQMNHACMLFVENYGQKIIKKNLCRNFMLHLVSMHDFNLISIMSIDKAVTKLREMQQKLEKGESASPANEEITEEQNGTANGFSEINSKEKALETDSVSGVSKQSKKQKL

`COc1cc(C)[nH]c(=O)c1CNC(=O)c1c(C)n([C@H](C)C2CCN(C(=O)C3CCC(C)CC3)CC2)c2ccccc12` (mixture of isomers) [Compound 234] showed a concentration for half-maximal inhibition (IC50) in assay [1] of less than 100 nM. Further, the EC50 in assay [2] was less than 400 nM.
In the same order, the values of `CCC(F)(F)CN1CCC([C@@H](C)n2c(C)c(C(=O)NCc3c(OC)cc(C)[nH]c3=O)c3ccccc32)CC1` [Compound 108] are less than 100 nM and less than 400 nM.
The compound `COc1cc(C)[nH]c(=O)c1CNC(=O)c1c(C)n([C@H](C)C2CCN(C(=O)C(C)(C)C(F)(F)F)CC2)c2ccccc12` [Compound 114] came in with an IC50 in assay [1] of less than 100 nM. In addition, the EC50 in assay [2] was less than 400 nM.
The like results for `COC(C)(C)CN1CCC([C@@H](C)n2c(C)c(C(=O)NCc3c(C)cc(C)[nH]c3=O)c3ccccc32)CC1` [Compound 127] were, in that order, less than 100 nM and less than 400 nM.
Consider `COc1cc(C)[nH]c(=O)c1CNC(=O)c1c(C)n([C@H](C)C2CCN(CC(C)(C)OC)CC2)c2ccccc12` [Compound 128], for which, in assay [2], the EC50 was less than 400 nM.
Regarding `CCCc1cc(C)[nH]c(=O)c1CNC(=O)c1c(C)n([C@H](C)C2CCN(S(=O)(=O)CC)CC2)c2ccccc12` [Compound 132], in assay [2], the EC50 is less than 400 nM.
Regarding `COc1cc(C)[nH]c(=O)c1CNC(=O)c1c(C)n([C@H](C)C2CCN(CC3(C(F)(F)F)CCC3)CC2)c2ccccc12` [Compound 135], the EC50 in assay [2] was less than 400 nM.
Consider `CCS(=O)(=O)N1CCC([C@@H](C)n2c(C)c(C(=O)NCc3c(OCC(F)(F)F)cc(C)[nH]c3=O)c3ccccc32)CC1` [Compound 163], for which, in assay [2], the EC50 was in the range of 400 to 2000 nM.
For `COc1cc(C)[nH]c(=O)c1CNC(=O)c1c(C)n([C@H](C)C2CCN(CC(C)=O)CC2)c2ccccc12` [Compound 169], the IC50 in assay [1] (2 nM EZH2, 0.2 μM 3H SAM, 0.2 μM biotinylated oligonucleosomes, 3.6 μM H3K27me3 peptide, 60 min, read-out: EZH2_nuc_BSA_Brij_1.5 (IC50)) is less than 100 nM.
`COc1cc(C)[nH]c(=O)c1CNC(=O)c1c(C)n([C@H](C)C2CCN(CC(F)(F)CO)CC2)c2ccccc12` [Compound 175]: the half-maximal inhibitory concentration (IC50) in assay [1] was less than 100 nM. The EC50 in assay [2] was 400 to 2000 nM.
Compound `COc1cc(C)[nH]c(=O)c1CNC(=O)c1c(C)n([C@H](C)C2CCN(C(C)C(F)F)CC2)c2ccccc12` (stereo partly shown) [Compound 177] displayed an IC50 in assay [1] of less than 100 nM. For the same compound, the EC50 in assay [2] is less than 400 nM.
`COc1cc(C)[nH]c(=O)c1CNC(=O)c1c(C)n([C@H](C)C2CCN(CC3CCO3)CC2)c2ccccc12` (stereo partly shown) [Compound 179] displayed a half-inhibitory concentration (IC50) in assay [1] of less than 100 nM. Moreover, the EC50 in assay [2] fell in the range of 400 to 2000 nM.
The like results for `COc1cc(C)[nH]c(=O)c1CNC(=O)c1c(C)n([C@H](C)C2CCN(CC3COC3)CC2)c2ccccc12` [Compound 180] were, in that order, less than 100 nM and more than 2000 nM.
In the same order, the values of `COCC(F)(F)CN1CCC([C@@H](C)n2c(C)c(C(=O)NCc3c(OC)cc(C)[nH]c3=O)c3ccccc32)CC1` [Compound 181] are less than 100 nM and less than 400 nM.
Take `COc1cc(C)[nH]c(=O)c1CNC(=O)c1c(C)n([C@H](C)C2CCN(CC(C)(C)C#N)CC2)c2ccccc12` [Compound 185]: the IC50 in assay [1] is less than 100 nM. Further, in assay [2], the EC50 lay within 400 to 2000 nM.
Regarding `COc1cc(C)[nH]c(=O)c1CNC(=O)c1c(C)n([C@H](C)C2CCN(C(=O)CC#N)CC2)c2ccccc12` [Compound 186], the 50% inhibitory concentration (IC50) in assay [1] is less than 100 nM. For the same compound, the EC50 in assay [2] lay in the range of 400 to 2000 nM.
For `COc1cc(C)[nH]c(=O)c1CNC(=O)c1c(C)n([C@H](C)C2CCN(C(=O)C3(C)COC3)CC2)c2ccccc12` [Compound 189], the IC50 in assay [1] is less than 100 nM. In addition, in assay [2], the EC50 lay within 400 to 2000 nM.
`COc1cc(C)[nH]c(=O)c1CNC(=O)c1c(C)n([C@H](C)C2CCN(C(=O)C3(C)CC3)CC2)c2ccccc12` [Compound 190] gave an IC50 in assay [1] of less than 100 nM. Further, the EC50 in assay [2] lay in the range of 400 to 2000 nM.
In turn, `COc1cc(C)[nH]c(=O)c1CNC(=O)c1c(C)n([C@H](C)C2CCN(C(=O)C3(C)CCCC3)CC2)c2ccccc12` [Compound 191] displayed an IC50 in assay [1] of less than 100 nM. Moreover, the EC50 in assay [2] fell in the range of 400 to 2000 nM.
In the same order, the values of `COc1cc(C)[nH]c(=O)c1CNC(=O)c1c(C)n([C@H](C)C2CCN(C(=O)C3(C)CN(C)C3)CC2)c2ccccc12` [Compound 192] are less than 100 nM and more than 2000 nM.
On to `COc1cc(C)[nH]c(=O)c1CNC(=O)c1c(C)n([C@H](C)C2CCN(CCC#N)CC2)c2ccccc12` [Compound 206], for which, in assay [1], the IC50 was less than 100 nM. Moreover, the EC50 in assay [2] is less than 400 nM.
The like results for `COc1cc(C)[nH]c(=O)c1CNC(=O)c1c(C)n([C@H](C)C2CCN(CCS(C)(=O)=O)CC2)c2ccccc12` [Compound 207] were, in that order, less than 100 nM and more than 2000 nM.
`CCCC(=O)N1CCC([C@@H](C)n2c(C)c(C(=O)NCc3c(OC)cc(C)[nH]c3=O)c3ccccc32)CC1` [Compound 209] displayed an IC50 in assay [1] of less than 100 nM. The EC50 in assay [2] was 400 to 2000 nM.
In the same order, the values of `CCC(C)C(=O)N1CCC([C@@H](C)n2c(C)c(C(=O)NCc3c(OC)cc(C)[nH]c3=O)c3ccccc32)CC1` (stereo partly shown) [Compound 210] are less than 100 nM and 400 to 2000 nM.
As for `COc1cc(C)[nH]c(=O)c1CNC(=O)c1c(C)n([C@H](C)C2CCN(C(=O)C(C)=O)CC2)c2ccccc12` [Compound 211], in assay [1], the 50% inhibitory concentration (IC50) is less than 100 nM. Also, the EC50 in assay [2] is 400 to 2000 nM.
`COc1cc(C)[nH]c(=O)c1CNC(=O)c1c(C)n([C@H](C)C2CCN(C(=O)Cc3ccccc3)CC2)c2ccccc12` [Compound 212]: the IC50 in assay [1] is less than 100 nM. Also, the EC50 in assay [2] is less than 400 nM.
In the same order, the values of `COc1cc(C)[nH]c(=O)c1CNC(=O)c1c(C)n([C@H](C)C2CCN(C(=O)CC(C)C)CC2)c2ccccc12` [Compound 213] are less than 100 nM and less than 400 nM.
With `COc1cc(C)[nH]c(=O)c1CNC(=O)c1c(C)n([C@H](C)C2CCN(C(=O)c3ccc(C#N)cc3)CC2)c2ccccc12` [Compound 214], the concentration for half-maximal inhibition (IC50) in assay [1] was less than 100 nM. Also, the EC50 in assay [2] lay within 400 to 2000 nM.
The like results for `COc1cc(C)[nH]c(=O)c1CNC(=O)c1c(C)n([C@H](C)C2CCN(C(=O)C3CCC3)CC2)c2ccccc12` [Compound 216] were, in that order, less than 100 nM and less than 400 nM.
In the same order, the values of `CC[C@H](C1CCN(CC(F)F)CC1)n1c(C)c(C(=O)NCc2c(OC)cc(C)[nH]c2=O)c2ccccc21` [Compound 219] are less than 100 nM and less than 400 nM.
In the same order, the values of `COc1cc(C)[nH]c(=O)c1CNC(=O)c1c(C)n([C@H](C)C2CCN(CC3(C)COC3)CC2)c2ccccc12` [Compound 220] are less than 100 nM and less than 400 nM.
Compound `COc1cc(C)[nH]c(=O)c1CNC(=O)c1c(C)n([C@H](C)C2CCN(C)CC2F)c2ccccc12` (stereo partly shown) [Compound 221] came in with an IC50 in assay [1] of less than 100 nM. Also, the EC50 in assay [2] was less than 400 nM.
In the same order, the values of `COc1cc(C)[nH]c(=O)c1CNC(=O)c1c(C)n([C@H](C)C2CCN(CC3(F)COC3)CC2)c2ccccc12` [Compound 222] are less than 100 nM and less than 400 nM.
